How the values were obtained:
PARP-1 = molecular target: T1, PARP-1 (Homo sapiens, UniProt P09874); assay: PARP-1 inhibition (Universal Colorimetric PARP Assay-Histones kit); format: biochemical; conditions: for IC50: IC50 determined only for drugs inhibiting 50% or more at 10 μM, 0.01 ~10 μM, 0.5U PARP, room temperature, 1 h; for PARP-1 inhibitory effect (in words): judged from Table 2
T1 construct: purchased TREVIGEN 4671-096-K

ischemic heart (허혈심장) = assay: Antiischemic (cardioprotective) effect in in vivo ischemic heart model of the rat; conditions: 1 mg/kg; for reduction of myocardial infarction rate / cardioprotective effect (in words): rat, versus negative control 58.6%; for myocardial infarction rate (IS/AAR, infarct size/area at risk): via femoral vein, male rat, 45 min occlusion, 90 min reperfusion, negative control 58.6%

T1 sequence (P09874 whole entry): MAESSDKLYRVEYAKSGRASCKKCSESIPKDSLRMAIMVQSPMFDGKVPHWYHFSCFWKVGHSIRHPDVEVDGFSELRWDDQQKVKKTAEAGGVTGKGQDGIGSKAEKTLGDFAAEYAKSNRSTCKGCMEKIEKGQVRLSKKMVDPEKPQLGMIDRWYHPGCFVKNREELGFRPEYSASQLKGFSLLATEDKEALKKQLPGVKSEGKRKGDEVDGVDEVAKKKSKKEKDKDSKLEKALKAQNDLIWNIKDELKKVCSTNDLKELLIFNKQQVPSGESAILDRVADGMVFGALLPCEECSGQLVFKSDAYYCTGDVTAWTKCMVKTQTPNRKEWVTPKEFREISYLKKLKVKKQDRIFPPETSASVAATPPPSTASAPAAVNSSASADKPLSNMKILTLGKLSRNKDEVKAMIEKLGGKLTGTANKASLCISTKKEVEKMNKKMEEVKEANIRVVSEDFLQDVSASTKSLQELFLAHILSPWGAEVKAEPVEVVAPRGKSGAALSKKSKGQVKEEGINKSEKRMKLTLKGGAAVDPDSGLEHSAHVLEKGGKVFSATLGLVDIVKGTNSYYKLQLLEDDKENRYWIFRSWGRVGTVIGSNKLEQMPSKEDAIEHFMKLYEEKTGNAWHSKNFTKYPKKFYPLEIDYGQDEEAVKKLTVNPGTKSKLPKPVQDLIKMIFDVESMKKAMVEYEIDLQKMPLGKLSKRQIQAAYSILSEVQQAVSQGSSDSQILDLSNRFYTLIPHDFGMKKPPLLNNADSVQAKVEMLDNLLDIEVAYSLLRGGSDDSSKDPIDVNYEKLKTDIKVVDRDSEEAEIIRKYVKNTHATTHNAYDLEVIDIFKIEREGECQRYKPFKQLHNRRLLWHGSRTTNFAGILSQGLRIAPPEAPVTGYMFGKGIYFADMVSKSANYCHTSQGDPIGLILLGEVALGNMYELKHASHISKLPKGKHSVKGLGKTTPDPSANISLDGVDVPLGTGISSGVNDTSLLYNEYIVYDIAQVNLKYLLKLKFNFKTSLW

Compound | IC50 (PARP-1) [µM] | reduction of myocardial infarction rate / cardioprotective effect (in words) (ischemic heart (허혈심장)) | myocardial infarction rate (IS/AAR, infarct size/area at risk) (ischemic heart (허혈심장)) [%] | PARP-1 inhibitory effect (in words) (PARP-1)
NC(=O)c1cccc2[nH]c(SCC(=O)c3cccc(Br)c3)nc12 [실시예 11, 2-[2-(3-브로모페닐)-2-옥소-에틸설파닐]-1H-벤즈이미다졸-4-카르복스아미드] | 2.23 | – | – | –
NC(=O)c1cccc(C(=O)CSc2nc3c(C(N)=O)cccc3[nH]2)c1 [실시예 18, 2-[2-(3-카르바모일페닐)-2-옥소-에틸설파닐]-1H-벤즈이미다졸-4-카르복스아미드] | 0.43 | 우수한 심장보호효과 | 37.5 | 매우 뛰어난 PARP-1 억제효과
Cc1ccc(C)c(C(=O)CSc2nc3c(C(N)=O)cccc3[nH]2)c1 [실시예 3, 2-[2-(2,5-디메틸페닐)-2-옥소-에틸설파닐]-1H-벤즈이미다졸-4-카르복스아미드] | 1.33 | – | – | –
NC(=O)c1cccc2[nH]c(SCC(=O)c3cccc(N4CCCC4)c3)nc12 [실시예 16, 2-[2-(3-피롤리딘-1-일페닐)-2-옥소-에틸설파닐]-1H-벤즈이미다졸-4-카르복스아미드] | 1.2 | – | – | –
Cc1cccc(C(=O)CSc2nc3c(C(N)=O)cccc3[nH]2)c1 [실시예 15, 2-[2-(3-메틸페닐)-2-옥소-에틸설파닐]-1H-벤즈이미다졸-4-카르복스아미드] | 1.92 | – | – | –
NC(=O)c1cccc2[nH]c(SCC(=O)c3cccc(F)c3)nc12 [실시예 8, 2-[2-(3-플루오로페닐)-2-옥소-에틸설파닐]-1H-벤즈이미다졸-4-카르복스아미드] | 0.96 | – | – | 매우 뛰어난 PARP-1 억제효과
NC(=O)c1cccc2[nH]c(SCC(=O)c3ccc(N4CCCC4)cc3)nc12 [실시예 6, 2-[2-(4-피롤리딘-1-일페닐)-2-옥소-에틸설파닐]-1H-벤즈이미다졸-4-카르복스아미드] | > 10 | – | – | –
NC(=O)c1cccc2[nH]c(SCC(=O)c3ccc(C=O)cc3)nc12 [실시예 21, 2-[2-(4-포르밀페닐)-2-옥소-에틸설파닐]-1H-벤즈이미다졸-4-카르복스아미드] | 0.75 | – | – | 매우 뛰어난 PARP-1 억제효과
COc1cccc(C(=O)CSc2nc3c(C(N)=O)cccc3[nH]2)c1 [실시예 7, 2-[2-(3-메톡시페닐)-2-옥소-에틸설파닐]-1H-벤즈이미다졸-4-카르복스아미드] | 2.26 | – | – | –
CN(C)c1ccc(C(=O)CSc2nc3c(C(N)=O)cccc3[nH]2)cc1 [실시예 5, 2-[2-(4-디메틸아미노페닐)-2-옥소-에틸설파닐]-1H-벤즈이미다졸-4-카르복스아미드] | > 10 | – | – | –
COc1ccccc1C(=O)CSc1nc2c(C(N)=O)cccc2[nH]1 [실시예 13, 2-[2-(2-메톡시페닐)-2-옥소-에틸설파닐]-1H-벤즈이미다졸-4-카르복스아미드] | 1.12 | – | – | –
NC(=O)c1ccc(C(=O)CSc2nc3c(C(N)=O)cccc3[nH]2)cc1 [실시예 19, 2-[2-(4-카르바모일페닐)-2-옥소-에틸설파닐]-1H-벤즈이미다졸-4-카르복스아미드] | 0.38 | 우수한 심장보호효과 | 36.3 | 매우 뛰어난 PARP-1 억제효과
NC(=O)c1cccc2[nH]c(SCC(=O)c3ccccc3)nc12 [실시예 20, 2-[2-페닐-2-옥소-에틸설파닐]-1H-벤즈이미다졸-4-카르복스아미드] | > 10 | – | – | –
COc1ccc(C(=O)CSc2nc3c(C(N)=O)cccc3[nH]2)cc1 [실시예 14, 2-[2-(4-메톡시페닐)-2-옥소-에틸설파닐]-1H-벤즈이미다졸-4-카르복스아미드] | 1.94 | – | – | –
Cc1ccccc1C(=O)CSc1nc2c(C(N)=O)cccc2[nH]1 [실시예 12, 2-[2-(2-메틸페닐)-2-옥소-에틸설파닐]-1H-벤즈이미다졸-4-카르복스아미드] | 0.96 | – | – | 매우 뛰어난 PARP-1 억제효과
NC(=O)c1cccc2[nH]c(SCC(=O)c3ccc(F)cc3)nc12 [실시예 4, 2-[2-(4-플루오로페닐)-2-옥소-에틸설파닐]-1H-벤즈이미다졸-4-카르복스아미드] | 0.94 | – | – | 매우 뛰어난 PARP-1 억제효과
NC(=O)c1cccc2[nH]c(SCC(=O)c3ccc(Br)cc3)nc12 [실시예 2, 2-[2-(4-브로모페닐)-2-옥소-에틸설파닐]-1H-벤즈이미다졸-4-카르복스아미드] | 0.71 | 음성대조군보다 유의성 있는 감소 | 44.1 | 매우 뛰어난 PARP-1 억제효과
NC(=O)c1cccc2[nH]c(SCC(=O)c3ccc(N4CCCCC4)cc3)nc12 [실시예 17, 2-[2-(3-피페리딘-1-일페닐)-2-옥소-에틸설파닐]-1H-벤즈이미다졸-4-카르복스아미드] | 1.4 | – | – | –
NC(=O)c1cccc2[nH]c(SCC(=O)c3ccc(Cl)cc3Cl)nc12 [실시예 9, 2-[2-(2,4-디클로로페닐)-2-옥소-에틸설파닐]-1H-벤즈이미다졸-4-카르복스아미드] | 4.75 | – | – | –
NC(=O)c1cccc2[nH]c(SCC(=O)c3ccccc3F)nc12 [실시예 10, 2-[2-(2-플루오로페닐)-2-옥소-에틸설파닐]-1H-벤즈이미다졸-4-카르복스아미드] | 1.22 | – | – | –
NC(=O)c1cccc2[nH]c(SCC(=O)c3cc(Cl)ccc3Cl)nc12 [실시예 1, 2-[2-(2,5-디클로로페닐)-2-옥소-에틸설파닐]-1H-벤즈이미다졸-4-카르복스아미드] | 1.05 | – | – | –

Reference: KR20100022620A, “2-(2-옥소-2-페닐에틸설파닐)-벤즈이미다졸-4-카르복스아미드 유도체 또는 이의 약학적으로 허용가능한 염, 이의 제조방법 및 이를 유효성분으로 함유하는 폴리(adp-리보스)폴리머라제-1(parp-1)의 과활성에 의해 유발되는 질환의 예방 또는 치료용 약학적 조성물” (한국화학연구원, priority 2008, dated 2010)
